{"source": "paper PMC7051184", "about": "“C9orf72 arginine-rich dipeptide repeat proteins disrupt karyopherin-mediated nuclear import” (eLife, 2020)", "key": {"hnRNPA1": {"system": "hnRNPA1", "test": "DPR aggregation assay and western blot, hnRNPA1", "format": "biochemical, human", "conditions": "normalized to untreated HEK cells on the same membrane", "procedure": "(§1) Supernatant and pellet fractions (for all 5 DPRs, and control/buffer only) were prepared as in the nuclear transport assays, by adding 100 µM 10mers to 2.5 mg/ml HEK lysate in 100 µL TRB. Supernatants were boiled in Laemmli (BioRad) for 5 min. Pellets were boiled for 15 min followed by sonication in order to fully disperse aggregates for SDS-PAGE. Equal volumes of supernatant and pellet fractions were run on 4–12% Bolt Bis-Tris Plus gels (ThermoFisher), transferred to nitrocellulose membrane using an iBlot2 dry blotting system (ThermoFisher). Protein loading was analyzed by BLOT-Faststain (G-biosciences, St. Louis, MO), according to the manufacterers’ instructions. For immunodetection, membranes were blocked with 5% non-fat milk in TBST and probed by sequential incubation with the primary antibodies as detailed in the table below. Detection was by HRP-conjugated secondary antibodies/chemiluminescence using an ImageQuant LAS 4000 system (GE, Chicago, IL). To permit sequential probing of membranes without stripping, signals were quenched by incubation with prewarmed 30% H20_2 for 20 min ([Sennepin et al., 2009]). Band intensities were measured by ImageQuant software. For pellet vs. supernatant fractions, all were expressed as percent untreated control. For blots in Figure 1E, samples were run on 4–20% SDS PAGE minigels (ThermoFisher) and blotted to PVDF membranes (Immun-Blot PVDF, Bio-Rad) using the Bio-Rad TransBlot Turbo apparatus, and probed as above. The chemiluminescence signal was captured with a Bio-Rad ChemiDoc XRS+ digital imaging system."}, "FUS": {"system": "FUS", "test": "DPR aggregation assay and western blot, FUS", "format": "biochemical, human", "conditions": "normalized to untreated HEK cells on the same membrane", "procedure": "as §1"}, "Nup133": {"system": "Nup133", "test": "DPR aggregation assay and western blot, Nup133", "format": "biochemical, human", "conditions": "100 µM 10mer in 2.5 mg/ml HEK lysate, normalized to untreated HEK", "procedure": "as §1"}, "Matrin-3": {"system": "Matrin-3", "test": "DPR aggregation assay and western blot, Matrin-3", "format": "biochemical, human", "conditions": "normalized to untreated HEK cells on the same membrane", "procedure": "as §1"}, "Nup54": {"system": "Nup54", "test": "DPR aggregation assay and western blot, Nup54", "format": "biochemical, human", "conditions": "100 µM 10mer in 2.5 mg/ml HEK lysate; Blot 1; normalized to untreated HEK", "procedure": "as §1, with “For blots in Figure 1E, samples were run on 4–20% SDS PAGE minigels (ThermoFisher) and blotted to PVDF membranes (Immun-Blot PVDF, Bio-Rad) using the Bio-Rad TransBlot Turbo apparatus, and probed as above. The chemiluminescence signal was captured with a Bio-Rad ChemiDoc XRS+ digital imaging system.” left out"}, "BSA": {"system": "BSA", "test": "Bead halo assay, biotinylated BSA-coated beads (non-specific control)", "format": "binding", "conditions": "AF488-labeled", "procedure": "Purified WT importin β (pKW485) diluted to 10 µM in XB was combined with 10-molar excess of Alexa Fluor 647 NHS ester (ThermoFisher), using freshly-prepared 10 mM dye in anhydrous DMSO. After incubation on ice for 2 hr, the sample was dialyzed in PBS and concentrated on 30kD MWCO filter (Millipore Sigma) before storage. A similar protocol was used to label BSA with 10-molar excess Sulfo-NHS-LC-biotin (ThermoFisher), followed by dialysis in PBS.\n(§2) The bead halo assay was carried out as described with minor modifications ([Patel and Rexach, 2008]), using […] polystyrene beads coated with neutravidin (for biotinylated proteins) or glutathione (for GST-fusion proteins) (Spherotech, Lake Forest, IL). Beads were coated overnight at 4°C at saturating concentrations per manufacturers’ instructions and rinsed 2x in binding buffer (20 mM HEPES [pH 7.4], 150 mM KOAc, 2 mM Mg(OAc)2, 1 mM DTT, 0.1% Tween-20). Immediately prior to the assay, fluorescent bait proteins and beads were combined with 4x assay buffer (40 mM EDTA, 40 mg/ml BSA, 500 mM NaCl, and 0.2% Tween) to a total of 40 µL per well, in optical glass-bottom 96-well plates (Cellvis, Mountain View, CA). Reactions were allowed to equilibrate at room temperature for a minimum of 30 min prior to imaging at 100x on an LSM800 confocal microscope (Zeiss, Oberkochen, Germany). […]"}, "Nsp1(497-609)": {"system": "Nsp1(497-609)", "test": "Bead halo assay, GST-Nsp1(497-609) FxFG domain", "format": "binding, S. cerevisiae", "conditions": "AF488-labeled", "procedure": "The expression of GST- Nsp1(497-609) in BL21(DE3) cells grown in LB media was induced at OD600nm = 0.4–0.6, followed by incubation at 37°C for 3–5 hr. The GST-tagged S. cerevisiae pGEX-Nup100(1-307), Nup100(1-610), Nup116(348-458) and Nup116(348-458)F > A were expressed in T7 Shuffle cells (NEB) that were grown in Dynamite media ([Taylor et al., 2017]) until OD600nm = 0.9 before induction with IPTG at 37°C for 3 hr. All the GST-tagged Nup fragments were purified using glutathione-sepharose affinity chromatography, as described for the GST-GFP-NLS above, and dialyzed into PBS before storage.\nas §2, with “CA).” for “CA). Reactions were allowed to equilibrate at room temperature for a minimum of 30 min prior to imaging at 100x on an LSM800 confocal microscope (Zeiss, Oberkochen, Germany).”"}, "importin β": {"system": "importin β", "test": "Bead halo assay, biotinylated importin β on neutravidin beads", "format": "binding, human", "conditions": "AF488-labeled; 1 mg/ml neuronal lysate added", "procedure": "To prepare biotinylated WT importin β-Avitag (pKW1982, pK1099), BL21DE3 cells (New England Biolabs, Ipswich, MA) were co-transfected with the respective plasmids together with pAC-biotin ligase (Avidity), followed by plating and growth in LB media containing ampicillin and chloramphenicol. After the 37°C cultures reached OD600nm + 0.4–0.6, the cultures were cooled to room temperature, supplemented with 100 µM D-biotin, and the expression was induced with 0.3 mM IPTG at room temperature for 8–11 hr (pKW762). Proteins were purified on Ni-NTA resin as described for the non-biotinylated importin β fragments.\nas §2, with “CA).” for “CA). Reactions were allowed to equilibrate at room temperature for a minimum of 30 min prior to imaging at 100x on an LSM800 confocal microscope (Zeiss, Oberkochen, Germany).”"}, "hnRNPA2/B1": {"system": "hnRNPA2/B1", "test": "DPR aggregation assay and western blot, hnRNPA2/B1", "format": "biochemical, human", "conditions": "normalized to untreated HEK cells on the same membrane", "procedure": "as §1"}}, "note": "Where a SMILES comes first, the peptide text is derived from it.", "data": [{"compound": "N=C(N)NCCC[C@H](NC(=O)[C@@H]1CCCN1C(=O)[C@H](CCCNC(=N)N)NC(=O)[C@@H]1CCCN1C(=O)[C@H](CCCNC(=N)N)NC(=O)[C@@H]1CCCN1C(=O)[C@H](CCCNC(=N)N)NC(=O)[C@@H]1CCCN1C(=O)[C@H](CCCNC(=N)N)NC(=O)[C@@H]1CCCN1C(=O)[C@H](CCCNC(=N)N)NC(=O)[C@@H]1CCCN1C(=O)[C@H](CCCNC(=N)N)NC(=O)[C@@H]1CCCN1C(=O)[C@H](CCCNC(=N)N)NC(=O)[C@@H]1CCCN1C(=O)[C@H](CCCNC(=N)N)NC(=O)[C@@H]1CCCN1C(=O)[C@H](CCCNC(=N)N)NC(=O)[C@@H]1CCCN1)C(=O)O", "note": "[PR10] (H-PRPRPRPRPRPRPRPRPRPR-OH; N-terminus and C-terminus assumed)", "values": [{"measurement": "hnRNPA1 band density, % control", "setting": "hnRNPA1; Pellet, Blot 1", "value": 165.2, "unit": "% control"}, {"measurement": "hnRNPA1 band density, % control", "setting": "hnRNPA1; Pellet, Blot 2", "value": 367.1, "unit": "% control"}, {"measurement": "hnRNPA1 band density, % control", "setting": "hnRNPA1; Supernatant, Blot 1", "value": 61.7, "unit": "% control"}, {"measurement": "hnRNPA1 band density, % control", "setting": "hnRNPA1; Supernatant, Blot 2", "value": 58.6, "unit": "% control"}, {"measurement": "FUS band density, % control", "setting": "FUS; Pellet, Blot 1", "value": 65.8, "unit": "% control"}, {"measurement": "FUS band density, % control", "setting": "FUS; Pellet, Blot 2", "value": 35.2, "unit": "% control"}, {"measurement": "FUS band density, % control", "setting": "FUS; Supernatant, Blot 1", "value": 99.5, "unit": "% control"}, {"measurement": "FUS band density, % control", "setting": "FUS; Supernatant, Blot 2", "value": 123.2, "unit": "% control"}, {"measurement": "Nup133 band density, Pellet", "setting": "Nup133; Blot 1", "value": 156.5, "unit": "% control"}, {"measurement": "Nup133 band density, Supernatant", "setting": "Nup133; Blot 1", "value": 45.6, "unit": "% control"}, {"measurement": "Nup133 band density, Pellet", "setting": "Nup133; Blot 2", "value": 194.3, "unit": "% control"}, {"measurement": "Nup133 band density, Supernatant", "setting": "Nup133; Blot 2", "value": 40.2, "unit": "% control"}, {"measurement": "Matrin-3 band density, % control", "setting": "Matrin-3; Pellet, Blot 1", "value": 407.8, "unit": "% control"}, {"measurement": "Matrin-3 band density, % control", "setting": "Matrin-3; Pellet, Blot 2", "value": 159.1, "unit": "% control"}, {"measurement": "Matrin-3 band density, % control", "setting": "Matrin-3; Supernatant, Blot 1", "value": 25.9, "unit": "% control"}, {"measurement": "Matrin-3 band density, % control", "setting": "Matrin-3; Supernatant, Blot 2", "value": 42.9, "unit": "% control"}, {"measurement": "Nup54 band density, Pellet", "setting": "Nup54", "value": 143.4, "unit": "% control"}, {"measurement": "Nup54 band density, Supernatant", "setting": "Nup54", "value": 96.8, "unit": "% control"}, {"measurement": "Binding to BSA-coated beads", "setting": "BSA; 200 nM, binding buffer", "value": "modest non-specific binding"}, {"measurement": "Nonspecific binding to control beads", "setting": "BSA; 1 mg/ml neuronal lysate added", "value": "nonspecific binding decreased"}, {"measurement": "FG-binding with added unlabeled importin β", "setting": "Nsp1(497-609)", "value": "FG-binding could be augmented"}, {"measurement": "Binding to importin β-coated beads", "setting": "importin β", "value": "the intensity of the importin β halo persisted"}, {"measurement": "hnRNPA2/B1 band density, % control", "setting": "hnRNPA2/B1; Pellet, Blot 1", "value": 426.4, "unit": "% control"}, {"measurement": "hnRNPA2/B1 band density, % control", "setting": "hnRNPA2/B1; Pellet, Blot 2", "value": 309.1, "unit": "% control"}, {"measurement": "hnRNPA2/B1 band density, % control", "setting": "hnRNPA2/B1; Supernatant, Blot 1", "value": 53.5, "unit": "% control"}, {"measurement": "hnRNPA2/B1 band density, % control", "setting": "hnRNPA2/B1; Supernatant, Blot 2", "value": 56.7, "unit": "% control"}]}]}
